Read-outs that look alike come from different tables or passages of the source.
Experiments:
[1] = molecular target: T1, human ACC1 (acetyl-coenzyme A carboxylase alpha transcript variant 1) (Homo sapiens, UniProt Q13085); assay: Human ACC1 enzyme assay, Assay B1 (ADP-Glo); type: biochemical
T1 construct: FLAG (C); made in house; host or cells: baculovirus-infected insect cells (Hi5)

[2] = system: malonyl-CoA in a tumour (human MCF-7 breast cancer cells); assay: Mode-of-action experiment: intratumour malonyl-CoA in MCF-7 tumours after oral administration; type: in vivo, female nude mice (NMRI-nude (nu/nu)); details: Mus musculus, MCF7, po; after 7 h, 10 mg/kg, vs Vehicle
Protocol: Mode-of-Action Experiment
Prior to the determination of the activity in the MCF-7 model, some of the test substances were examined in a “mode of action” experiment. The principle of this experiment is that short-term application of a test substance capable of inhibiting ACC1 and/or ACC2 in a living organism after oral administration reduces malonyl-CoA in a tumour. To this end, in the experiment 2 million human MCF-7 breast cancer cells were injected subcutaneously into female nude mice (NMRI-nude (nu/nu) mice, Taconic M&B A/S, 1 day beforehand administration of a pellet for the release of oestrogen over a period of at least 60 days). Once the tumour extended to an area of about 60-70 mm^2, the test substance was administered orally over a period of 1-3 days, and at defined points in time the intratumour content of malonyl-CoA was then determined and compared to the vehicle control. The method is described in Anal Chem 2008 Aug. 1; 80(15):5736-42. Epub 2008 Jul. 9.).

[3] = system: MCF7; assay: Cell proliferation assay (CellTiter-Glo, 96 h), MCF7; type: cell-based; details: Homo sapiens, MCF7; Table 7; 96-hour incubation
How it was run: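 Cells seeded at 2000-5000 cells/well, incubated overnight at 37° C., then exposed to compound in growth medium for 96 hours at 37° C. Viability read by CellTiter-Glo luminescence; t=0 values subtracted from t=96 h values, and percent growth inhibition derived relative to untreated controls.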

[4] = molecular target: human ACC2 (acetyl-coenzyme A carboxylase 2) (Homo sapiens, UniProt O00763); assay: Human ACC2 enzyme assay, Assay B2 (ADP-Glo);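 also: human ACC2 activity read as ADP product, detected by luciferase glow luminescence after residual ATP removal, enzyme near 2 ng/µl in linear range, detection steps at 22 °C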
[5] = molecular target: recombinant human ACC1 (Homo sapiens, UniProt Q13085); assay: Human ACC1 enzyme assay, Assay A1 (HTRF ADP immunoassay);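 also: ADP generated by the enzyme quantified via competitive time-resolved FRET, read as europium cryptate to d2 energy transfer after 1 h at 22 °C with labelled ADP tracer and anti-ADP antibody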
Protocol: The inhibitory activity of the substances of this invention with regard to acetyl-CoA carboxylase 1 (ACC1) was measured using the ACC1 assay described in the paragraphs below. The basic principle of the assay is the measurement of adenosine diphosphate (ADP), which is formed as a by-product, by means of an HTRF®-based competitive immunoassay (HTRF=Homogeneous Time Resolved Fluorescence).
Typical concentrations were in the range of 2.5 ng/μl.
The amount of complex between d2-labelled ADP and europium cryptate-labelled anti-ADP antibody was then determined by measuring the resonance energy transfer from the europium cryptate to d2.

[6] = molecular target: acetyl-CoA carboxylase 2 (ACC2) (Homo sapiens, UniProt O00763); assay: Human ACC2 enzyme assay, Assay A2 (HTRF ADP immunoassay);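 also: ADP generated by ACC2 quantified via competitive time-resolved FRET between europium cryptate anti-ADP antibody and d2-tagged ADP, enzyme kept in linear range near 0.6 ng/µl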
[7] = Assay B1, read-out: ACC 1 (=B1) IC50

Sequence of human ACC2 (acetyl-coenzyme A carboxylase 2) (O00763 27-2458 limits assumed): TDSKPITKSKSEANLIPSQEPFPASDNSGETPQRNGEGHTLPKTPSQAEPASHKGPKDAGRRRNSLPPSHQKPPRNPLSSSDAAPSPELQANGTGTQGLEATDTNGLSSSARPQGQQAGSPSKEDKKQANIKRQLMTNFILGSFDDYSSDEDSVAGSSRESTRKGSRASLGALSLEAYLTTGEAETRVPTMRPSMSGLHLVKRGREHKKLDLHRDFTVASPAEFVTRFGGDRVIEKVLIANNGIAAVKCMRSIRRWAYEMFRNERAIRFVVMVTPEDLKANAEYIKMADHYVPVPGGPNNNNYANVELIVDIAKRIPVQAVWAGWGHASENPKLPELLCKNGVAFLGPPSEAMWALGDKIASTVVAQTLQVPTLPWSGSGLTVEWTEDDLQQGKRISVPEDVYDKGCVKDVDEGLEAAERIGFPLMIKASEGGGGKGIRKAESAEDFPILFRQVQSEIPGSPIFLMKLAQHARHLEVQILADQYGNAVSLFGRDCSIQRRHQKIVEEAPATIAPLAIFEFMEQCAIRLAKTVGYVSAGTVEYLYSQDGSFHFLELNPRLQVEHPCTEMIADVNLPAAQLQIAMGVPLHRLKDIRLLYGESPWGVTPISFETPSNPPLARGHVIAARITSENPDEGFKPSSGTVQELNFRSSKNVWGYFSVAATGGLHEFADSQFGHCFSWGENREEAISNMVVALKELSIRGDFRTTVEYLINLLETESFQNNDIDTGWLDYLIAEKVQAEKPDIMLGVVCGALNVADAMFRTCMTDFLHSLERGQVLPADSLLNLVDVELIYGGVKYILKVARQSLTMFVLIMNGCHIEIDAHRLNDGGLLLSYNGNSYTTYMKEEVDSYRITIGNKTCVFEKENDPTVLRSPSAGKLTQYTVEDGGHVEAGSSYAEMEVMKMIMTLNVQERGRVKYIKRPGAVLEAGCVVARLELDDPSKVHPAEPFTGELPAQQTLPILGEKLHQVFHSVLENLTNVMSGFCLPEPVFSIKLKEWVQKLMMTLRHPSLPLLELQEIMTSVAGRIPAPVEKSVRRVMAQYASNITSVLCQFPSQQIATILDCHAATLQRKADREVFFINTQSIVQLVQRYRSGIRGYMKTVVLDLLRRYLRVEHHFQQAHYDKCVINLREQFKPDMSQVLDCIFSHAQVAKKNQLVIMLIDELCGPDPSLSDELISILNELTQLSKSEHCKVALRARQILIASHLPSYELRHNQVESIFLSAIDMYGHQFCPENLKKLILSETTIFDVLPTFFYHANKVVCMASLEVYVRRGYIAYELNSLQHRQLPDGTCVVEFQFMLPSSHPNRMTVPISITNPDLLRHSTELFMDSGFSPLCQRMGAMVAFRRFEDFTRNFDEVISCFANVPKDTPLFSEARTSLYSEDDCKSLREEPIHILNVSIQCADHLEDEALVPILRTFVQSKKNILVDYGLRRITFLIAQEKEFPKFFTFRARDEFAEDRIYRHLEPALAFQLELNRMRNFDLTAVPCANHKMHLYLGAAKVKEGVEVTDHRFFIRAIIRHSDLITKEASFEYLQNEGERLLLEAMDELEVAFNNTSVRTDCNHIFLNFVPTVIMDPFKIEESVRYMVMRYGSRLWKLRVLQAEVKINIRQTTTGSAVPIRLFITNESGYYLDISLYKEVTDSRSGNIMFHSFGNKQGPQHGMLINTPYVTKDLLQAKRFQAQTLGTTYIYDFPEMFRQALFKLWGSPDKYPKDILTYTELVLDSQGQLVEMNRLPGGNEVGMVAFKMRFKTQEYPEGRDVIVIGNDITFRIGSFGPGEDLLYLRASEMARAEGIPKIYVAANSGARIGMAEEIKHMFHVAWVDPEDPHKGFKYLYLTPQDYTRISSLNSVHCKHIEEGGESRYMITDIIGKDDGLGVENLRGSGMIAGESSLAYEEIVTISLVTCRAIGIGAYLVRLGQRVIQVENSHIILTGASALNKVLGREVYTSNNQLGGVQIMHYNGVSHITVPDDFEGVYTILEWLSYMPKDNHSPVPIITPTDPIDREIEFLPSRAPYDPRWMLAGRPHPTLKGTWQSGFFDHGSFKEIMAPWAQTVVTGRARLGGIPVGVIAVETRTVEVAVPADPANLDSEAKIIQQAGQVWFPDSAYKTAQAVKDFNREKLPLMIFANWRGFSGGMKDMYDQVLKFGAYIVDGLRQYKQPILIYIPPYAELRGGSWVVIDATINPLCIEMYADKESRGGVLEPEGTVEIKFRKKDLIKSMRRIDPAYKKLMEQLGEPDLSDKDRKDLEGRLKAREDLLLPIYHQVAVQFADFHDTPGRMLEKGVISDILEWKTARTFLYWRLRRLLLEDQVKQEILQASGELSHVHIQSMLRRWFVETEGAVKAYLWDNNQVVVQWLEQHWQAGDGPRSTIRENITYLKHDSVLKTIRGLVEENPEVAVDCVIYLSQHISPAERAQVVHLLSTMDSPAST
Sequence of acetyl-CoA carboxylase 2 (ACC2) (O00763 39-2458 limits assumed): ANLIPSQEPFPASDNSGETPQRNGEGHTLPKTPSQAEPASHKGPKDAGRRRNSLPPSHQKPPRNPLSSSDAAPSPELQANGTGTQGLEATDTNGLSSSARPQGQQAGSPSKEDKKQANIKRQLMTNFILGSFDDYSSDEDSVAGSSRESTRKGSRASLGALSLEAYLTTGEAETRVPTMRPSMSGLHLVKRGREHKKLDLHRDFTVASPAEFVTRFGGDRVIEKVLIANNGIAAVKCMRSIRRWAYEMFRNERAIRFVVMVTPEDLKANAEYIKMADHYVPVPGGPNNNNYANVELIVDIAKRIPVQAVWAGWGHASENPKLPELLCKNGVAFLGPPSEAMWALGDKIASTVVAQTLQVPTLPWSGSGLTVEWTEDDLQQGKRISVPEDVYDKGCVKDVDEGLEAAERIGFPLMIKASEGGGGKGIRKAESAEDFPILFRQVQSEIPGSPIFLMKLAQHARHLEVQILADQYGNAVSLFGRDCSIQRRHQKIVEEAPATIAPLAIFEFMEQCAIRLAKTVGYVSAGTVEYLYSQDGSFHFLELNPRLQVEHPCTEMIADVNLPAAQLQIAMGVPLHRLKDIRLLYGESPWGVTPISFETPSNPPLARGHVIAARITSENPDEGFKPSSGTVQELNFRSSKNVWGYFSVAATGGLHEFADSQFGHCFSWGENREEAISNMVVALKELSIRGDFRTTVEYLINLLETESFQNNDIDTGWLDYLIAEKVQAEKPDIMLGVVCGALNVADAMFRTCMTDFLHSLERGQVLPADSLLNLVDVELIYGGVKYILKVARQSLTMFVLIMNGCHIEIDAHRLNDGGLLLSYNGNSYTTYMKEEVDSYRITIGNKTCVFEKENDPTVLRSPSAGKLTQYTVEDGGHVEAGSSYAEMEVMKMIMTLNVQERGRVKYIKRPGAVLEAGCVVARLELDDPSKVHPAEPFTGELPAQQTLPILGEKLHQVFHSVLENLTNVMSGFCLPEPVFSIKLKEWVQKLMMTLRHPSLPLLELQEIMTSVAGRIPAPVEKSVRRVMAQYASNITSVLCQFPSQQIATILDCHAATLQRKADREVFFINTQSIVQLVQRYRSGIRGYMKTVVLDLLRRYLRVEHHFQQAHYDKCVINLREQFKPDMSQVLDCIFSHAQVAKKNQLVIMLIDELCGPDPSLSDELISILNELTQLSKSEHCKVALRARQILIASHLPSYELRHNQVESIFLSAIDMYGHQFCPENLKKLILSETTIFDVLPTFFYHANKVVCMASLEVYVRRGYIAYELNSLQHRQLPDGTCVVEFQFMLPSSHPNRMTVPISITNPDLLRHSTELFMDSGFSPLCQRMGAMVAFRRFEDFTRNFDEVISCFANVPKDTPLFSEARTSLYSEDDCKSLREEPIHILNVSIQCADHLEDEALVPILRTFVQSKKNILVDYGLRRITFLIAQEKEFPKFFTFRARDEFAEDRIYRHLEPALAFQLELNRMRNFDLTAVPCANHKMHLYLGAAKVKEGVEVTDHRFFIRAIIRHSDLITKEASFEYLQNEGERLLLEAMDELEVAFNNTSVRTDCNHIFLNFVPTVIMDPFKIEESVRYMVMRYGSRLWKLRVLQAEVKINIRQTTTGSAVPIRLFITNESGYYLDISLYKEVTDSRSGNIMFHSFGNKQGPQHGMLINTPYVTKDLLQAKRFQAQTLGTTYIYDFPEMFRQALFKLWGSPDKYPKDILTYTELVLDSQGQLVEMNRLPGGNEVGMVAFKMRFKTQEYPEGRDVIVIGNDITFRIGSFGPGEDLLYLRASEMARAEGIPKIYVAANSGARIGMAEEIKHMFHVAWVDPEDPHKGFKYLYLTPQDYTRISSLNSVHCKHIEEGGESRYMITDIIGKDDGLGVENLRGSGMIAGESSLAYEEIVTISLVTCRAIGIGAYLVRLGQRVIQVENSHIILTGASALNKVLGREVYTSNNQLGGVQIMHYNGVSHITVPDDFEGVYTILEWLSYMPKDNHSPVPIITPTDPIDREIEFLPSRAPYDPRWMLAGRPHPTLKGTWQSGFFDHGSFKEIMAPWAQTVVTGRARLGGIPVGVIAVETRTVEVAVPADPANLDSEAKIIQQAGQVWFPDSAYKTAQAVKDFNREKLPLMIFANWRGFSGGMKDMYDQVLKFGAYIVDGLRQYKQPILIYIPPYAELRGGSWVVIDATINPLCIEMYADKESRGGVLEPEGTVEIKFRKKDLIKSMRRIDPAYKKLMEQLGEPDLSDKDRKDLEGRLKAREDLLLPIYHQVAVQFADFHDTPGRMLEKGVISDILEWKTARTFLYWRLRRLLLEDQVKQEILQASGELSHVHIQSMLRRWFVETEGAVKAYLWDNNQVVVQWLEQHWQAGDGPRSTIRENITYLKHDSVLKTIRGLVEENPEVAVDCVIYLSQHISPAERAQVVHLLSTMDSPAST

Row | IC50 [1, 7] | Compound | inhibition in vivo at 10 mg/kg [2] | IC50 [3] | IC50 [4] | IC50 [5] | IC50 [6] | IC50 [1]
1 | 230 nM | Cc1ccc(-c2ccc(Cl)cc2)cc1C1=C(O)C2(CCC(C(C)C)CC2)NC1=O (stereo not shown) [1-24, 3-(4′-chloro-4-methylbiphenyl-3-yl)-4-hydroxy-8-(propan-2-yl)-1-azaspiro[4.5]dec-3-en-2-one] | 91% | 27 nM | 517 nM |  |  | 
2 |  | CO[C@H]1CC[C@]2(CC1)NC(=O)C(c1cc(-c3ccc(Cl)cc3)ccc1C)=C2O [1-2, (5s,8s)-3-(4′-chloro-4-methylbiphenyl-3-yl)-4-hydroxy-8-methoxy-1-azaspiro[4.5]dec-3-en-2-one] | 96% | 57 nM | 822 nM |  |  | 
3 | 246 nM | Cc1ccc(-c2ccc(Cl)cc2)cc1C1=C(O)C2(CCCOC2)NC1=O (stereo not shown) [1-5, 3-(4′-chloro-4-methylbiphenyl-3-yl)-4-hydroxy-7-oxa-1-azaspiro[4.5]dec-3-en-2-one] | 82% | 230 nM | 11000 nM |  |  | 
4 | 150 nM | CCO[C@H]1CC[C@@]2(CC1)NC(=O)C(c1cc(-c3ccc(Cl)cc3)ccc1C)=C2O [1-147, (5r,8r)-3-(4′-Chloro-4 methylbiphenyl-3-yl)-8-ethoxy-4-hydroxy-1-azaspiro[4.5]dec-3-en-2-one] |  | 174 nM | 2030 nM | 195 nM | 1250 nM | 
5 | 99 nM | Cc1cc(F)c(-c2ccc(Cl)c(F)c2)cc1C1=C(O)C2(CCC(C(F)(F)F)CC2)NC1=O (mixture of isomers) [1-94, 3-(4′-Chloro-3′,6-difluoro-4-methylbiphenyl-3-yl)-4-hydroxy-8-(trifluoromethyl)-1-azaspiro[4.5]dec-3-en-2-one] |  | 85 nM | 2030 nM | 73 nM | 873 nM | 
6 | 467 nM | Cc1ccc(-c2ccc(F)c(F)c2)cc1C1=C(O)[C@]2(CC[C@](O)(C(F)(F)F)CC2)NC1=O [1-124, (5r,8r)-3-(3′,4′-Difluoro-4-methylbiphenyl-3-yl)-4,8-dihydroxy-8-(trifluoromethyl)-1-azaspiro[4.5]dec-3-en-2-one] |  | 1700 nM | > 20000 nM | 458 nM | > 20000 nM | 
7 | 142 nM | Cc1ccc(-c2ccc(Cl)cc2)cc1C1=C(O)[C@@]2(CCC[C@H](C(F)(F)F)C2)NC1=O [1-133, (5S,7S)-3 (4′-Chloro-4 methylbiphenyl-3-yl)-4-hydroxy-7-(trifluoromethyl)-1-azaspiro[4.5]dec-3-en-2-one] |  | 75 nM | 8100 nM | 329 nM | 2870 nM | 
8 |  | CO[C@H]1CC[C@]2(CC1)NC(=O)C(c1cc(-c3ccc(Cl)c(F)c3)c(Cl)cc1C)=C2O [1-108, (5s,8s)-3-(4′,6-Dichloro-3′-fluoro-4-methylbiphenyl-3-yl)-4-hydroxy-8-methoxy-1-azaspiro[4.5]dec-3-en-2-one] |  | 76 nM | 753 nM | 460 nM | 346 nM | 204 nM
9 |  | Cc1cc(C)c(-c2ccc(Cl)cc2)cc1C1=C(O)C2(CCC(C(F)(F)F)CC2)NC1=O (stereo not shown) [1-97, 3-(4′-Chloro-4,6-dimethylbiphenyl-3-yl)-4-hydroxy-8 (trifluoromethyl)-1-azaspiro[4.5]dec-3-en-2-one] |  | 155 nM | 269 nM | 1940 nM | 138 nM | 1110 nM
10 | 163 nM | Cc1ccc(-c2ccc(Cl)cc2)cc1C1=C(O)[C@]2(CC[C@H](C)CC2)NC1=O [1-76, 3-(4′-chloro-4-methylbiphenyl-3-yl)-4-hydroxy-8-methyl-1-azaspiro[4.5]dec-3-en-2-one] | 96% |  | 432 nM |  |  | 
11 |  | Cc1ccc(-c2ccc(F)c(F)c2)cc1C1=C(O)C2(CCCCC2)NC1=O [1-115, 3-(3′,4′-Difluoro-4-methylbiphenyl-3-yl)-4-hydroxy-1-azaspiro[4.5]dec-3-en-2-one] |  | 98 nM | 10300 nM | 314 nM | 5040 nM | 196 nM
12 | 238 nM | Cc1c(F)cc(-c2ccc(F)c(F)c2)cc1C1=C(O)[C@]2(CC[C@H](C(F)(F)F)CC2)NC1=O [1-96, (5s,8s)-4-Hydroxy-8-(trifluoromethyl)-3-(3′,4′,5-trifluoro-4-methylbiphenyl-3-yl)-1-azaspiro[4.5]dec-3-en-2-one] |  | 108 nM | > 20000 nM | 416 nM | > 20000 nM | 
13 | 562 nM | Cc1ccc(-c2ccc(Cl)c(F)c2)cc1C1=C(O)[C@]2(CC[C@](O)(C(F)(F)F)CC2)NC1=O [1-123, (5r,8r)-3-(4′-Chloro-3′-fluoro-4-methylbiphenyl-3-yl)-4,8-dihydroxy-8-(trifluoromethyl)-1-azaspiro[4.5]dec-3-en-2-one] |  | 309 nM | 11200 nM | 173 nM | 3440 nM | 
14 | 126 nM | COC[C@H]1CC[C@]2(CC1)NC(=O)C(c1cc(-c3ccc(Cl)c(F)c3)ccc1C)=C2O [1-111, (5s,8s)-3-(4′-Chloro-3′-fluoro-4-methylbiphenyl-3-yl)-4-hydroxy-8-(methoxymethyl)-1-azaspiro[4.5]dec-3-en-2-one] |  | 194 nM | 1120 nM | 177 nM | 592 nM | 
15 | 145 nM | Cc1cc(F)c(-c2ccc(Cl)cc2)cc1C1=C(O)[C@]2(CC[C@](O)(C(F)(F)F)CC2)NC1=O [1-127, (5r,8r)-3-(4′-Chloro-6-fluoro-4-methylbiphenyl-3-yl)-4,8-dihydroxy-8-(trifluoromethyl)-1-azaspiro[4.5]dec-3-en-2-one] |  | 1400 nM | 13400 nM | 216 nM | 4840 nM | 
16 |  | CC1CCC2(CC1)NC(=O)C(c1cc(-c3ccc(Cl)cc3)ccc1Cl)=C2O (stereo not shown) [1-139, 3-(4,4′-Dichlorobiphenyl-3-yl)-4-hydroxy-8-methyl-1-azaspiro[4.5]dec-3-en-2-one] |  | 70 nM | 4550 nM | 280 nM | 605 nM | 153 nM
17 |  | Cc1cc(C)c(-c2ccc(Cl)cc2)cc1C1=C(O)[C@]2(CC[C@H](C(F)(F)F)CC2)NC1=O [1-98, (5s,8s)-3-(4′-Chloro-4,6-dimethylbiphenyl-3-yl)-4-hydroxy-8-(trifluoromethyl)-1-azaspiro[4.5]dec-3-en-2-one] |  | 99 nM | 174 nM | 2190 nM | 204 nM | 1040 nM
18 |  | CO[C@H]1CC[C@]2(CC1)NC(=O)C(c1cc(-c3ccc(Cl)cc3F)ccc1C)=C2O [1-142, (5s,8s)-3-(4′-Chloro-2′-fluoro-4-methylbiphenyl-3-yl)-4-hydroxy-8-methoxy-1-azaspiro[4.5]dec-3-en-2-one] |  | 106 nM | 957 nM | 337 nM | 551 nM | 704 nM
19 |  | CO[C@H]1CC[C@]2(CC1)NC(=O)C(c1cc(-c3ccc(Cl)cc3Cl)ccc1C)=C2O [1-143, (5s,8s)-3-(2′,4′-Dichloro-4-methylbiphenyl-3-yl)-4-hydroxy-8-methoxy-1-azaspiro[4.5]dec-3-en-2-one] |  | 111 nM | 2150 nM | 282 nM | 1020 nM | 161 nM
20 |  | Cc1ccc(-c2ccc(Cl)cc2)cc1C1=C(O)[C@]2(CC[C@H](CO)CC2)NC1=O [1-117, (5s,8s)-3-(4′-Chloro-4 methylbiphenyl-3-yl)-4-hydroxy-8-(hydroxymethyl)-1-azaspiro[4.5]dec-3-en-2-one] |  | 64 nM | 4110 nM | 232 nM | 812 nM | 194 nM
21 |  | CO[C@H]1CC[C@]2(CC1)NC(=O)C(c1cc(-c3ccc(Cl)cc3)c(F)cc1C)=C2O [1-135, (5s,8s)-3-(4′-Chloro 6 fluoro 4-methylbiphenyl-3-yl)-4-hydroxy-8-methoxy-1-azaspiro[4.5]dec-3-en-2-one] |  | 171 nM | 1750 nM | 220 nM | 657 nM | 94 nM
22 |  | CO[C@H]1CC[C@]2(CC1)NC(=O)C(c1cc(-c3ccc(Cl)cc3)c(C)cc1C)=C2O [1-132, (5s,8s)-3-(4′-Chloro-4,6-dimethylbiphenyl-3-yl)-4-hydroxy-8-methoxy-1-azaspiro[4.5]dec-3-en-2-one] |  | 70 nM | 234 nM | 1710 nM | 106 nM | 912 nM
23 |  | CO[C@H]1CC[C@]2(CC1)NC(=O)C(c1cc(-c3ccc(F)c(F)c3)cc(F)c1C)=C2O [1-107, (5s,8s)-4-Hydroxy-8-methoxy-3-(3′,4′,5-trifluoro-4-methylbiphenyl-3-yl)-1-azaspiro[4.5]dec-3-en 2-one] |  | 267 nM | > 20000 nM | 804 nM | > 20000 nM | 376 nM
